For data set [1] the following is noted: cited from earlier work; for Rate of dissolution in H2O at 25° C.: grade in words.
The conditions of data set [2]: Prakash et al., 2008, cited from earlier work.
For data set [3] the following is noted: room temperature (25° C.); related art; cited from earlier work.
Data set [4] can be described thus: Water solubility in RO water at room temperature (25° C.). The conditions noted are these: g per 100 g solvent. Type of data set: physicochemical. The method, then:
Hereinafter, unless specified otherwise, the solubility of material is determined in RO (reverse osmosis) water at room temperature (25° C.). Where the solubility is expressed as “%” it to be understood as number of grams of material soluble in 100 grams of solvent.
The material is deemed soluble at certain concentration if the produced solution has <10 FAU (Formazin Attenuation Unit) turbidity value.

Each structure is given as a SMILES string. Like-named read-outs stand apart in the source and are kept apart here.

With `C=C1C[C@@]23CC[C@H]4[C@@](C)(CCC[C@@]4(C)C(=O)O[C@@H]4O[C@H](CO)[C@@H](O)[C@H](O)[C@H]4O)[C@@H]2CC[C@]1(O[C@@H]1O[C@H](CO)[C@@H](O)[C@H](O[C@@H]2O[C@H](CO)[C@@H](O)[C@H](O)[C@H]2O)[C@H]1O[C@@H]1O[C@H](CO)[C@@H](O)[C@H](O)[C@H]1O)C3` [Form 1, Rebaudioside A], the “Rate of dissolution in H2O at 25° C.” value in data set [1] was “Very low”. Further, the “Rate of dissolution in H2O at 25° C. (% dissolved)” value (from here on “Rate of dissolution … (% dissolved)”) in data set [1] (in 60 minutes) is given as “(<0.2% in 60”. The “solubility (in words)” value in data set [2] (listed as hydrate form of Rebaudioside A) is “lowest solubility”.

On to `C=C1C[C@@]23CC[C@H]4[C@@](C)(CCC[C@@]4(C)C(=O)O[C@@H]4O[C@H](CO)[C@@H](O)[C@H](O)[C@H]4O)[C@@H]2CC[C@]1(O[C@@H]1O[C@H](CO)[C@@H](O)[C@H](O[C@@H]2O[C@H](CO)[C@@H](O)[C@H](O)[C@H]2O)[C@H]1O[C@@H]1O[C@H](CO)[C@@H](O)[C@H](O)[C@H]1O)C3` [Form 2, Rebaudioside A], for which the “Rate of dissolution in H2O at 25° C.” value in data set [1] is recorded as “Intermediate”. Also, the “Rate of dissolution … (% dissolved)” value in data set [1] (in 5 minutes) is recorded as “(<30% in 5”.

Consider `C=C1C[C@@]23CC[C@H]4[C@@](C)(CCC[C@@]4(C)C(=O)O[C@@H]4O[C@H](CO)[C@@H](O)[C@H](O)[C@H]4O)[C@@H]2CC[C@]1(O[C@@H]1O[C@H](CO)[C@@H](O)[C@H](O[C@@H]2O[C@H](CO)[C@@H](O)[C@H](O)[C@H]2O)[C@H]1O[C@@H]1O[C@H](CO)[C@@H](O)[C@H](O)[C@H]1O)C3` [Form 3, Rebaudioside A], for which, in data set [1], the “Rate of dissolution in H2O at 25° C.” value is reported as “High”. Also, the “Rate of dissolution … (% dissolved)” value in data set [1] (in 5 minutes) is reported as greater than 30%.

Regarding `C=C1C[C@@]23CC[C@H]4[C@@](C)(CCC[C@@]4(C)C(=O)O[C@@H]4O[C@H](CO)[C@@H](O)[C@H](O)[C@H]4O)[C@@H]2CC[C@]1(O[C@@H]1O[C@H](CO)[C@@H](O)[C@H](O[C@@H]2O[C@H](CO)[C@@H](O)[C@H](O)[C@H]2O)[C@H]1O[C@@H]1O[C@H](CO)[C@@H](O)[C@H](O)[C@H]1O)C3` [Form 4, Rebaudioside A], the “Rate of dissolution in H2O at 25° C.” value in data set [1] was “High”. Further, in data set [1] (in 5 minutes), the “Rate of dissolution … (% dissolved)” value is reported as greater than 35%. Further, the “solubility (in words)” value in data set [2] (listed as rebaudioside A amorphous forms) is “high solubility”.

For the molecule `C=C1C[C@@]23CC[C@H]4[C@@](C)(CCC[C@@]4(C)C(=O)O[C@@H]4O[C@H](CO)[C@@H](O)[C@H](O)[C@H]4O[C@@H]4O[C@H](CO)[C@@H](O)[C@H](O)[C@H]4O)[C@@H]2CC[C@]1(O[C@@H]1O[C@H](CO)[C@@H](O)[C@H](O[C@@H]2O[C@H](CO)[C@@H](O)[C@H](O)[C@H]2O)[C@H]1O[C@@H]1O[C@H](CO)[C@@H](O)[C@H](O)[C@H]1O)C3` [Rebaudioside D], the water solubility entry in data set [3] is recorded as “less than 0.05%”.

Turning to `C=C1C[C@@]23CC[C@H]4[C@@](C)(CCC[C@@]4(C)C(=O)O[C@@H]4O[C@H](CO)[C@@H](O)[C@H](O[C@@H]5O[C@H](CO)[C@@H](O)[C@H](O)[C@H]5O)[C@H]4O[C@@H]4O[C@H](CO)[C@@H](O)[C@H](O)[C@H]4O)[C@@H]2CC[C@]1(O[C@@H]1O[C@H](CO)[C@@H](O)[C@H](O[C@@H]2O[C@H](CO)[C@@H](O)[C@H](O)[C@H]2O)[C@H]1O[C@@H]1O[C@H](CO)[C@@H](O)[C@H](O)[C@H]1O)C3` [Rebaudioside M], in data set [4] (listed as Crystalline Rebaudioside M), the solubility in water is recorded as 0%-0.1. Besides, the water solubility result in data set [3] was “about 0.1%”.

With `C=C1C[C@@]23CC[C@H]4[C@@](C)(CCC[C@@]4(C)C(=O)O[C@@H]4O[C@H](CO)[C@@H](O)[C@H](O[C@@H]5O[C@H](CO)[C@@H](O)[C@H](O)[C@H]5O)[C@H]4O[C@@H]4O[C@H](CO)[C@@H](O)[C@H](O)[C@H]4O)[C@@H]2CC[C@]1(O[C@@H]1O[C@H](CO)[C@@H](O)[C@H](O[C@@H]2O[C@H](CO)[C@@H](O)[C@H](O)[C@H]2O)[C@H]1O[C@@H]1O[C@H](CO)[C@@H](O)[C@H](O)[C@H]1O)C3` [rebaudioside M], the solubility in water in data set [4] is given as 2%.

Source of the values: patent publication US12193460B2, “Highly soluble steviol glycosides” (PureCircle USA Inc., priority 2016, dated 2025).
